The term IC50 denotes the concentration needed to halve the response being measured. Read a low IC50 as greater potency.

For test [1], the system named is PAF-Induced Platelet Count Decrease. The test can be described thus: PAF-Induced Platelet Count Decrease. It is filed as in vivo, guinea pig. The following applies: Cavia porcellus, Platelet, 0.25 h; 3 mg/kg, iv; 15 minutes pretreatment time; read-out: PAF-Induced Platelet Count Decrease % Inhibition, i.v. The procedure: Male Hartley guinea pigs weighing between 500 and 900 grams were fed standard guinea pig chow and tap water ad libitum. PAF was solubilized in ethanol and stored as a 2 mM stock solution at -70° C. The stock solution of PAF was diluted to […] in Tris buffer pH 7.4 and 0.1% BSA for all experiments.
Guinea pigs were anesthetized with urethane (1.6 g/kg, i.p.). A catheter (PE50) was introduced into the right carotid artery for withdrawing blood. A second catheter PE10) was introduced into the jugular vein for injecting drugs and for administering the PAF challenge (75 ng/kg, i.v.). A control blood sample was obtained and platelets were counted in a whole blood platelet analyzer. PAF was then given and blood samples were taken 15, 30, and 60 seconds after the challenge for platelet counts. Fifteen minutes later, selected concentrations of the test compound were solubilized in DMSO and injected intravenously into a group of 4-6 animals. Only one concentration of the test drug was used in each animal group. Fifteen minutes after drug injection, blood samples were taken before and 15, 30, and 60 sec after the PAF challenge, and analyzed for platelet number.
Animals were anesthetized with sodium pentobarbital (35 mg/kg. i.p.) and the carotid artery and jugular vein were cannulated as described above. The cannulae were exteriorized at the base of the neck and the animals were allowed to recover. Conscious, unrestrained guinea pigs which were allowed to recover from surgery for at least 18 hours were used in the experiments. The animals were challenged two times with PAF (120 ng/kg, i.v.); the first to establish a consistent response to PAF and the second to serve as a control from the PAF challenge. Blood samples were taken before and 15, 30, and 45 seconds after PAF challenge and platelets were counted. Thirty minutes after the control PAF challenge, the animals were orally dosed with either gum acacia or the test compound. Animals were then challenged with PAF at 1, 3, 5, and 24 hours after the administration of the drug.
The % change, i.e., the difference in platelet number before and after PAF challenge was calculated by: [formula] The % activity of drug was then determined by
Statistical significance (p≤0.05) of the difference between the mean PAF control and mean drug treated activity was determined with the pared Students's t-test.

Test [2] deals with T1, PAF binding, dog platelets (Canis lupus familiaris, UniProt A0A8I3NSH0).
T1 sequence (A0A8I3NSH0 1-343): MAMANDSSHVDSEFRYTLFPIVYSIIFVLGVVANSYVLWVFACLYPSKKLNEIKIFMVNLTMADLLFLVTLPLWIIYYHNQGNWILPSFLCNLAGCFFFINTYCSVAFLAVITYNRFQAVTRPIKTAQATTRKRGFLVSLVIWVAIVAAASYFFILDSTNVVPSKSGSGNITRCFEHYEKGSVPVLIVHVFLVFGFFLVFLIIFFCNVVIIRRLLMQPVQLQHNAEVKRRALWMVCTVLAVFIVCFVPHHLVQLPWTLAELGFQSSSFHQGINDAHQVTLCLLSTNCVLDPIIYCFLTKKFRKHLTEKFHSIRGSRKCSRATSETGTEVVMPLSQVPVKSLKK
Nature of the test: PAF Binding Assay (3H-PAF binding to washed dog platelets). The following applies: 10 minutes at room temperature.
Procedure: The binding assay was performed in 400 μl polyethylene microcentrifuge tubes (Beckman) containing 50 μl of an oil mixture of 2 parts Siliconol AR200 (Serva): 1 part Silicone Fluid (Arthur H. Thomas). Buffer, standards, or analogs 150 μl total volume) were added to the tubes. Radiolabelled ^3 H-PAF (50 μl) was then added to the tubes. The reaction was started by the addition of 50 μl of dog platelets (2×10^7 platelets). The tubes were capped, inverted several times to mix, and incubated for 10 minutes at room temperature. The platelets were separated from the incubation mixture by centrifuging 1 minute in a Beckman Microfuge B centrifuge. The tip of the microfuge tube was cut off, and the platelets were washed out of the tip with 200 μl of 50% methanol (Burdick and Jackson). Aquasol (NEN, 10 ml) was added and the radioactivity in the samples was determined using an LS 8100 Beckman liquid scintillation counter linked to a Techtran tape recorder. Data was processed through an in-house computer system. Alternatively, radioactivity was determined using a Searle Mark III liquid scintillation counter linked to a Iso-Data microprocessor.
Blood was collected from anesthesized or unanesthesized dogs into 5ml plastic centrifuge tubes containing 3.8% sodium citrate as the anticoagulant (1 volume of citrate/9 volumes of blood). The red cells were removed by centrifugation for 15 minutes at 600 rpm (100-125 g) at room temperature. An aliquot of the supernatant platelet rich Plasma (PRP) was saved for cell counting and the remainder was acidified to pH 6.5 with 0.15M citric acid. The platelet pellet was obtained after a 10 minute centrifugation at 2000 rpm (1000 g) at room temperature. Washed platelets were prepared by resuspending the platelet pellet once with PBS containing 1 mM EDTA, centrifuging as noted, and then resuspending the platelets in 0.1% BSA-PBS. An aliquot of the washed platelets was counted, platelets used for binding assays were diluted to 2×10^7 platelets/assay tube (4×10^8 platelets/ml).

The subject of test [3] is PAF-Induced Bronchoconstriction. Nature of the test: PAF-Induced Bronchoconstriction Assay. It is filed as in vivo, guinea pig. The following applies: Cavia porcellus. The procedure:
The in vivo ability of compounds to inhibit PAF-induced bronchoconstriction in guinea pigs was assessed by the intravenous and oral routes of administration. The intravenous technique utilized male guinea pigs (Hartley strain, Charles River) weighing 400-600 g. Animals were anesthetized with urethane (2 g/kg) intraperitoneally and a polyethylene cannula was inserted into the jugular vein for intravenous drug administration. Tracheal pressure ([…]) was recorded from a Statham pressure transducer (P 32 AA). Propranolol was administered 5 minutes prior to challenge with PAF. Two minutes later spontaneous breathing was arrested with succinylcholine chloride (1.2 mg/kg) administered intravenously, and the animals were ventilated with a Harvard (Model 680) small animal respirator set at 40 breaths/min and 4.0 cc stroke volume. Control vehicle or test drug was administered through the cannula into the jugular vein 1 minute before the animals were challenged with a maximum constrictory dose of PAF (1.0 μg/kg) given intravenously. The change in tracheal pressure was averaged for four control and four drug-treated animals and percent inhibition was calculated.
For determination of oral activity, animals were dosed with test compound or vehicle two hours prior to challenge with PAF (1.0 μg/kg, i.v.).
The change in tracheal pressure is determined by subtracting the steady state baseline achieved after administration of succinylcholine from the peak bronchoconstriction seen after challenge with PAF. The mean change in tracheal pressure is calculated for each test compound and compared to the mean change in tracheal pressure for the control animals to give the percent inhibition of bronchoconstriction. The standard error is calculated as the standard error of the mean.

Test [4] deals with T2, Thromboxane Synthase (TXA2 Syn.) (Homo sapiens, UniProt P24557).
T2 construct: microsomal fractions from human platelets as enzyme source; from tissue; host or cells: microsomal fractions from human platelets
T2 sequence (P24557 1-533): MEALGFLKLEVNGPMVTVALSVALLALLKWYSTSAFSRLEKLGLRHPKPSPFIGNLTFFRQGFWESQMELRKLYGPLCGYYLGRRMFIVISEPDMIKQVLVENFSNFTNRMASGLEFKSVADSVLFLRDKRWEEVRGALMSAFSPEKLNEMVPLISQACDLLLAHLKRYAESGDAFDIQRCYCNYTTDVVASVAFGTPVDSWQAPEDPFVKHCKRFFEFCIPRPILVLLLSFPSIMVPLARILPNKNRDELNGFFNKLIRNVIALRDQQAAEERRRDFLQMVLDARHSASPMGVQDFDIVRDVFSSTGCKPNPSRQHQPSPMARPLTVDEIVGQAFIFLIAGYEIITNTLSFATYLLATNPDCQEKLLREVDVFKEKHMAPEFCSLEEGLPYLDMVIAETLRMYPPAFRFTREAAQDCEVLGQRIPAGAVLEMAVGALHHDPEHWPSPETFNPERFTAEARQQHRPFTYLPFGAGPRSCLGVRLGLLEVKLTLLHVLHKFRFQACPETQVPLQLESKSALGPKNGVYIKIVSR
Nature of the test: TXA2 Synthesis Inhibition (thromboxane synthase, microsomal fractions from human platelets). It is filed as biochemical. The following applies: human platelet microsomes, 10 μM 14C-PGH2, 22°, 2 minutes. The procedure:
Thromboxane synthase inhibitory activity is measured by following the conversion of ^14 C-[…] using microsomal fractions from human platelets as enzyme source. In the aqueous incubation medium. The TXA2 decomposes rapidly into TXB2 . The amount of TXA2 syn. is adjusted so that under the conditions of the assay approximately 80-90% of the substrate. PGH2, is converted to product in control tubes. To prepare ^14 C-PGH2, ^14 C-AA(50-60mCi/mmole; Rose Chem.) is incubated with sheep seminal vesicular gland microsomes for 1.5 min. at 37° and then the ^14 C-PGH2 is extracted with diethylether, purified on columns of Sephadex LH-20 or silicic acid, and stored in acetone at -70° C. Incubations are done as follows. Sufficient ^14 C-PGH2 to yield a final substrate concentration of 10 μM ( 30,000 cpm) is added to the incubation tubes and then the acetone is removed under nitrogen. The tubes are placed in an ice bath and then 215 μl of ice cold phosphate buffered saline, 10 μof ethanol (control) or of test drug in ethanol, and 25 μl of the microsomal suspension are added with mixing in that order as rapidly as possible. The tubes are incubated at 22° for 2 minutes, the reaction is stopped and then the radioactive products and the unconverted PGH2 are extracted and analyzed by thin layer chromatography. The amount of ^14 C-PGH2 converted to products is analyzed by thin layer chromatography. The amount of ^14 C-PGH2 converted to products was used as a measure of TXA synthase activity. Inhibitors were tested initially at a concentration of 100 μM.

In test [5] the test system is PAF-Induced Platelet Count Decrease. Nature of the test: PAF-Induced Platelet Count Decrease. In kind it is in vivo, guinea pig. The note with it: 30 mg/kg, 2 hours, pretreatment.

Turning to `COc1ccc(-c2ccc(C(=S)NC(C)CCCc3cccnc3)cc2)cc1OC` (racemic) [rac.-3',4'-Dimethoxy-N-[1-methyl-4-(3-pyridinyl)butyl][1,1'-biphenyl]-4-carbothioamide], the inhibition in vivo at 3 mg/kg in test [1] was found to be 24%. The values for the IC50 in test [2] and in test [4] were 60 nM and 100 to 1000 nM, respectively. The inhibition in vivo at 1 mg/kg in test [3] (1 min, 1 mg/kg iv, 1 minute pretreatment) amounted to 86 ± 7%. The inhibition in vivo at 50 mg/kg in test [3] (50 mg/kg, po, 2 hours pretreatment) turned out to be 37 ± 9%. In test [5], the “PAF-Induced Platelet Count Decrease % Inhibition, po” value came to 48%.

For the origin of these results see US4916145A, “Substituted n-[(pyridyl)alkyl]aryl-carboxamide” (Hoffmann-La Roche Inc., priority 1987, dated 1990).
